Patent US12492163B2, “9H-fluorene derivatives or their pharmaceutically acceptable salts” (priority 2020, dated 2025)

Tests used:
[1] = Pharmacokinetic parameters in plasma and brain of mice; assay type: in vivo
Procedure: The research was carried out at the Department of Toxicology and Military Pharmacy, Faculty of Military Health Sciences in Hradec Kralove, Defense University in Brno in the Czech Republic, at the Biomedical Research Center and at the Department of Clinical Biochemistry of the University Hospital Hradec Kralove in the Czech Republic. All procedures were carried out under the supervision of the Ethics Committee of the Faculty of Military Health Sciences (No. 20/19; MO 215611/2019-684800). Male and female ICR-CD1 strain of domestic mice (Mus musculus) (body weight approx. 20-25 g) were used in the research. The animals were kept in standard, appropriately sized cages, divided into groups of a maximum of 8 animals. The animals in the test groups were administered the test compound intraperitoneally (doses in the acute toxicity study: 10, 20, 40 and 60 mg/kg, dose in the study of pharmacokinetic parameters 10 mg/kg). Control groups received 1% Tween 80.
After administration of compound JT-3 at the MTD dose (10 mg/kg), animals were subjected to deep terminal sedation at 0, 3, 5, 10, 20, 30, 45, 60, 90, 120, 240 and 360 minutes after dosing (six animals per time interval; n=6) and their blood was drawn by cardiac puncture into heparinized tubes. Samples were centrifuged (3000×g, 10 minutes, 10° C.). Plasma was stored at −80° C. until analyzed by HPLC. Blood in the cerebral vessels would interfere with the actual concentration levels in the brain tissue, therefore the animals were perfused transcardially with physiological saline (0.9% NaCl) for 5 minutes (10 mL/min). After perfusion, the skull was opened and the brain was carefully removed and stored at −80° C. until analyzed by HPLC.
Quantitative analyzes of JT-3 in plasma and brain were performed by HPLC. The method has been fully validated for plasma and partially validated for brain homogenate according to the EMA and FDA guidelines for the validation of bioanalytical methods [Research, C, Anonymous].

Albino Swiss CD-1 mice [2] = assay: Passive avoidance task (scopolamine-induced memory disorders); assay type: in vivo, Mus musculus; conditions: scopolamine 1 mg/kg s.c.
Procedure: (§1) The research was conducted at the Department of Pharmacodynamics, Faculty of Pharmacy, Jagiellonian University in Krakow. All procedures were approved by the 1st and 2nd Local Ethics Committee for Animal Experiments in Krakow (consent no. 53/2017 and 250/2019) and were performed in accordance with the applicable European Union regulation (86/609/EEC). Males of two different strains of domestic mice (Mus musculus) were used in the study: Albino Swiss CD-1 (body weight approx. 20-24 g, age approx. 6 weeks) and C57BL/6J mice (body weight approx. 18-22 g, age approx. 6 weeks). The CD-1 strain was used for the passive avoidance, spontaneous mobility and rotating rod tests, while the C57BL/6J mice were used for the Morris water maze and the Barnes' maze. The animals were kept in standard, appropriately sized cages, divided into groups with a maximum of 10 animals. The animals in the study groups in the learning phase were intraperitoneally administered the test compound 1 h before the start of the experiments (doses in the preliminary test, i.e. in the passive avoidance test: 10, 30 and 60 mg/kg), and 30 minutes later, 1 mg/kg of scopolamine subcutaneously. Two control groups were used in the tests to assess the procognitive activity of JT-3—one of them received saline and the other saline and scopolamine.
The test assesses contextual memory. The apparatus consists of two chambers (white: 26 cm×26 cm×34 cm; dark: 13 cm×7.5 cm×7.5 cm) separated by a door. The test consists of a two-day procedure. On the first day (acquisition phase), test compound or saline was administered to the animals 1 h prior to testing (i.p. administration). In order to induce memory disorders, scopolamine (1 mg/kg, s.c.) was also administered after 30 min. On the first day of testing, the mouse was placed in the white compartment. […] The latency of entry into the dark chamber was measured. […] After 30 s the door between the compartments was opened and, similarly to the acquisition phase, the latency time of entering the dark compartment was measured. […]

Albino Swiss CD-1 mice [3] = assay: Rotarod test; assay type: in vivo
Procedure: as §1
Before the experiment, the mice were adequately trained (3 days, rod revolving at 18 rpm). The device consists of a rod set in a horizontal position. It is 75 cm long, divided into 4 tracks, and is set in rotation by an electric motor. This metal rod is placed 50 cm above the table to discourage mice from jumping off it. On the day of the actual test, 24 h after the animals' last training, the mice were placed sequentially on the bar for 60 s (for each rotation speed). The rod rotation speed was set to 6, 18, and 24 rpm, respectively. The inability of the mice to stay on the rod for 60 s was considered a disorder of motor coordination.

O[C@H](CNCC1CC1)[C@H](Cc1ccccc1)NC1c2ccccc2-c2ccccc21 [JT-3, (2R,3S)-3-((9H-fluoren-9-yl)amino)-1-((cyclopropylmethyl)amino)-4-phenylbutan-2-ol]
Vz ([1]; both, ICR-CD1, mouse, in vivo, ip, 10 mg/kg): 40.93 ± 4.95 L/kg
Tmax ([1]; brain, mice, 10 mg/kg i.p.): 0.9167 ± 0.113 h
time of maximum concentration after administration ([1]; mice, 10 mg/kg i.p.): 60 min
penetration into the brain ([1]; mice, 10 mg/kg i.p., higher concentrations in the CNS than in plasma): Very good penetration
Half-life ([1]; plasma, elimination phase, mice, 10 mg/kg i.p.): 2.6907 ± 0.2375 h
Cmax ([1]; plasma, mice, 10 mg/kg i.p.): 430.09 ± 57.94 ng/mL
MRT ([1]; plasma, mice, 10 mg/kg i.p.): 3.6183 ± 0.2942 h
Tmax ([1]; plasma, mice, 10 mg/kg i.p.): 0.3888 ± 0.0828 h
λz (terminal phase rate constant) ([1]; plasma, mice, 10 mg/kg i.p.): 0.0045 ± 0.0004 min⁻¹
Cmax ([1]; sexes, ICR-CD1, mouse, in vivo, ip, 10 mg/kg): 833 ± 62.3 ng/g
latency of entry into the dark compartment, recall phase (day 2) vs scopolamine control (Albino Swiss CD-1 mice [2]; 10 mg/kg i.p., p<0.01): statistically significant difference
latency of entry into the dark compartment, recall phase (day 2) vs scopolamine control (Albino Swiss CD-1 mice [2]; 30 mg/kg i.p.): not active
latency of entry into the dark compartment, recall phase (day 2) vs scopolamine control (Albino Swiss CD-1 mice [2]; 60 mg/kg i.p.): not active
influence on motor coordination (Albino Swiss CD-1 mice [3]; 10 mg/kg): No negative influence
time kept on the bar (Albino Swiss CD-1 mice [3]; 10 mg/kg and 30 mg/kg, speeds of 6, 18, and 24 rpm, all animals): 60 s
influence on motor coordination (Albino Swiss CD-1 mice [3]; 30 mg/kg): No negative influence
